Data as given in publication PMC3261883, “Structure of S. aureus HPPK and the Discovery of a New Substrate Site Inhibitor” (PLoS ONE, 2012).
Values after ≈ are worked out from the molar mass of the structure shown. Values joined by “and” are separate entries in the source; they are usually repeats but may differ in a detail not shown here. Equal values may be shown once. Read-outs that look alike come from different tables or passages of the source.

Key:
[1] = Solubility estimated from ITC experiments; format: physicochemical; details: ITC buffer, estimated assuming 1:1 binding stoichiometry
[2] = set-up: method as in PMID 17511860; details: in vivo mouse model; cited from earlier work
SaHPPK [3] = test: Differential scanning fluorimetry (DSF) assay for ligand binding; set-up: species or system Staphylococcus aureus; details: for increase in unfolding temperature (Tm): saturating ligand
Description: A 96-well plate containing solutions of 2–5 µM SaHPPK, 10× Sypro orange dye and 500 µM of test compound in buffer (50 mM HEPES (pH 8.0), 1% sorbitol, 2.0 mM DTT, 10 mM MgCl2) was heated from […] at a rate of 1.0 K min^−1. The fluorescence intensity was measured with excitation/emission wavelengths of 583/610 nm. Tm and ΔTm values were determined from the melting curves obtained.

SaHPPK [4] = molecular target: T1, SaHPPK (Staphylococcus aureus, UniProt A0A0H3JXR3); test: biochemical; format: binding
SaHPPK [5] = molecular target: T1, SaHPPK; test: KinaseGlo luminescent biochemical assay of HPPK activity
SaHPPK [6] = molecular target: T1, SaHPPK; test: Surface plasmon resonance (SPR) with biotinylated SaHPPK on NeutrAvidin chip; format: binding
SaHPPK [7] = molecular target: T1, SaHPPK; format: binding
E. coli = E. coli cell-based growth inhibition assays; details: data not shown
B. anthracis DHPS = details: co-crystallisation; cited from earlier work
EcHPPK = details: cited from earlier work
E. coli HPPK = details: read-out: Km for the E. coli enzyme; different assays; cited from earlier work
[8] = ITC, 298 K, in the presence of 1 mM AMPCPP
[9] = ITC, 298 K, ligand alone, read-out: K d ITC
[10] = SPR steady-state, 293 K, ligand alone, read-out: K d SPR
[11] = fluorescence-based methods, in the presence of Mg2+, read-out: binding affinity (K d) of EcHPPK
[12] = read-out: dissociation constant for EcHPPK
[13] = in the absence of Mg2+, data not shown
[14] = SPR, 1:1 kinetic interaction model

T1 sequence (A0A0H3JXR3 entry or part of it): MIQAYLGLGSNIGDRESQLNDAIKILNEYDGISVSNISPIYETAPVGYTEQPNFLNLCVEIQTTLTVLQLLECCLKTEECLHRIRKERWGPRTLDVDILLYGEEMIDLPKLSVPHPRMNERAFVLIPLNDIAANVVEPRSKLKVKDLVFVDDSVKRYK

Nc1nc2nc(S)[nH]c2c(=O)[nH]1 [8-mercaptoguanine]
solubility [1]: ~300 µM (≈ 55 µg/mL) | antiviral activity and toxicity [2]: Antiviral activity,without significant toxicity | increase in Tm compared to apo (SaHPPK [3]; 500 µM ligand, 5 µM enzyme): 3.4 °C | N (binding stoichiometry) (SaHPPK [4]; [8]): 0.96±0.09 | TΔS (SaHPPK [4]; [8]): -10.4 ± 1.5 kcal/mol | ΔG (SaHPPK [4]; [8]): -6.8 ± 0.1 kcal/mol | ΔH (SaHPPK [4]; [8]): -17.2 ± 1.4 kcal/mol | Kd (SaHPPK [4]; ITC, 298 K, in the presence of 1 mM AMPCPP, read-out: K d ITC): 11.3 ± 2.3 µM | N (binding stoichiometry) (SaHPPK [4]; ITC, 298 K, ligand alone): 1.00±0.06 | TΔS (SaHPPK [4]; ITC, 298 K, ligand alone): -12.9 ± 3.5 kcal/mol | ΔG (SaHPPK [4]; ITC, 298 K, ligand alone): -6.7 ± 0.2 kcal/mol | ΔH (SaHPPK [4]; ITC, 298 K, ligand alone): -19.6 ± 3.4 kcal/mol | Kd (SaHPPK [4]; [9]): 12.8 ± 3.4 µM | ligand efficiency (SaHPPK [4]; K d ∼13 µM over 12 heavy atoms): 2.3 kJ/heavy atom | Kd (SaHPPK [4]; absence of cofactor, read-out: equilibrium dissociation constant Kd, summary value from ITC and SPR): ~13 µM and ~12 µM | IC50 (SaHPPK [5]; HMDP 0.3 µM, ATP 0.2 µM, read-out: IC50 for inhibition of SaHPPK): 41 µM and ~41 µM | times more tightly bound than HMDP (SaHPPK [6]): ~10 times | Kd (SaHPPK [6]; SPR steady-state, 293 K, in the presence of 5 mM ATP, read-out: K d SPR): 8.1 ± 1.6 µM | Kd (SaHPPK [6]; [10]): 10.8 ± 0.4 µM | K d indicated by NMR exchange regime (SaHPPK [7]): low µM range | growth inhibition (E. coli): did not observe growth inhibition | binding and inhibition of B. anthracis DHPS (B. anthracis DHPS): bind to, but not inhibit

Nc1ncnc2c1ncn2[C@@H]1O[C@H](COP(=O)(O)OP(=O)(O)O)[C@@H](O)[C@H]1O [ADP]
Kd (SaHPPK [6]; [10]): 760 ± 16 µM

Nc1ncnc2c1ncn2C1OC(COP(=O)(O)CP(=O)(O)OP(=O)(O)O)C(O)C1O (stereo not drawn) [AMPCPP, α,β-methylene adenosine 5′-triphosphate]
Kd (EcHPPK; [11]): 80 to 450 nM | Kd (EcHPPK; [12]): 450 nM | increase in unfolding temperature (Tm) (SaHPPK [3]): 11 °C | fold tighter binding than ATP (SaHPPK [4]; ITC affinity ratio): approximately 10 fold | N (binding stoichiometry) (SaHPPK [4]; ITC, 298 K, ligand alone): 1.06±0.12 | TΔS (SaHPPK [4]; ITC, 298 K, ligand alone): 1.3 ± 1.0 kcal/mol | ΔG (SaHPPK [4]; ITC, 298 K, ligand alone): -7.5 ± 0.2 kcal/mol | ΔH (SaHPPK [4]; ITC, 298 K, ligand alone): -6.3 ± 1.0 kcal/mol | Kd (SaHPPK [4]; [9]): 3.1 ± 1.2 µM | binding by ITC (SaHPPK [4]; [13]): no significant binding | Kd (SaHPPK [6]; [10]): 7.7 ± 0.4 µM | k a (SaHPPK [6]; [14]): 8.8±1.3×10^4 M^−1 s^−1 | k d (SaHPPK [6]; [14]): 0.5 ± 0.1 s⁻¹ | Kd (SaHPPK [6]; SPR, from k d/k a ratio, read-out: K d from kinetic interaction model): 5.4 ± 0.3 µM

Nc1ncnc2c1ncn2[C@@H]1O[C@H](COP(=O)(O)O)[C@@H](O)[C@H]1O [AMP]
Kd (SaHPPK [6]; [10]): 4900 ± 1100 µM

Nc1ncnc2c1ncn2[C@@H]1O[C@H](COP(=O)(O)OP(=O)(O)OP(=O)(O)O)[C@@H](O)[C@H]1O [ATP]
Kd (EcHPPK; [11]): 2600 to 4500 nM | Kd (EcHPPK; [12]): 2600 nM | increase in unfolding temperature (Tm) (SaHPPK [3]): 6 °C | N (binding stoichiometry) (SaHPPK [4]; ITC, 298 K, ligand alone): 0.98±0.11 | TΔS (SaHPPK [4]; ITC, 298 K, ligand alone): -0.3 ± 0.5 kcal/mol | ΔG (SaHPPK [4]; ITC, 298 K, ligand alone): -6.2 ± 0.1 kcal/mol | ΔH (SaHPPK [4]; ITC, 298 K, ligand alone): -6.5 ± 0.4 kcal/mol | Kd (SaHPPK [4]; [9]): 31 ± 4.5 µM | binding by ITC (SaHPPK [4]; [13]): no significant binding | Km (SaHPPK [5]; KinaseGlo assay, read-out: Km app): 10.8 ± 2.5 µM | Kd (SaHPPK [6]; [10]): ~45 µM and 45 µM

Nc1nc2c(c(=O)[nH]1)N=C(CO)CN2 [HMDP, 6-hydroxymethyl-7,8-dihydropterin]
Kd (EcHPPK; in the presence of Mg2+ and AMPCPP, read-out: binding affinity of EcHPPK): 36 to 170 nM | N (binding stoichiometry) (SaHPPK [4]; [8]): 1.23±0.15 | TΔS (SaHPPK [4]; [8]): -3.1 ± 0.9 kcal/mol | ΔG (SaHPPK [4]; [8]): -7.4 ± 0.2 kcal/mol | ΔH (SaHPPK [4]; [8]): -10.5 ± 1.0 kcal/mol | Kd (SaHPPK [4]; K d ITC, ITC, 298 K, in the presence of 1 mM AMPCPP): ~4 µM and 4 µM | binding by ITC (SaHPPK [4]; in the presence of the inhibitor 8-mercaptoguanine): could not be detected | Kd (SaHPPK [6]; K d SPR, SPR steady-state, 293 K, in the presence of AMPCPP): 3.6 ± 0.3 µM | Kd (SaHPPK [6]; K d SPR, SPR steady-state, 293 K, ligand alone): ~100 µM and 100 µM | Km (E. coli HPPK): 700 to 1600 nM

Nc1nc2nc[nH]c2c(=O)[nH]1 [guanine]
affinity by SPR (SaHPPK [6]; data not shown): undetectable

Mg-GTP
affinity of EcHPPK, fold less than for Mg-ATP (EcHPPK): 260 fold
